Laboratory results published in patent US20250332170A1, “VANDETANIB REDUCES INFLAMMATORY CYTOKINES AND AMELIORATES COVID-19” (Collaborations Pharmaceuticals, Inc., priority 2021, published 2025).
Entries after “also recorded” stand apart in the source; their conditions may differ.

System: Pseudo SARS-CoV-2 D614G
Format: cell-based

SMILES | SARS-CoV-2 Spike protein-mediated entry, pseudovirus assay
CN1CCN(c2ccc(C(=O)Nc3n[nH]c4ccc(Cc5cc(F)cc(F)c5)cc34)c(NC3CCOCC3)c2)CC1 [Entrectinib] | no significant activity
COc1cc2c(Nc3ccc(Br)cc3F)ncnc2cc1OCC1CCN(C)CC1 [Vandetanib] | active; also recorded: decreased viral entry
